Data as given in the CheMixHub viscosity set.

Experiment: xn = mol fraction of the nth substance listed

CCN(CC)S(C)(=O)=O + CO
303.15 K, 101.33 kPa
Conditions	viscosity [mPa·s]
x1 = 0.065	60400
x1 = 0.1394	73000
x1 = 0.2155	88400
x1 = 0.2885	103400
x1 = 0.3717	123400
x1 = 0.4509	145100
x1 = 0.5148	164500
x1 = 0.5856	187800
x1 = 0.6922	228900
x1 = 0.7686	263600
x1 = 0.8304	295600
x1 = 0.9084	341400

OC1CCCCC1 + O=C1CCCCC1
298.15 K, 101.3 kPa
Conditions	viscosity [mPa·s]
x2 = 0.2	13.85
x2 = 0.4	6.29
x2 = 0.51	4.54
x2 = 0.6	3.54
x2 = 0.8	2.38

C1CCCCCCC1 + C1CCCCC1
viscosity [mPa·s], 101 kPa
Conditions	303.15 K	308.15 K	313.15 K
x2 = 0.0546	–	1.706	1.541
x2 = 0.0923	1.877	–	–
x2 = 0.1695	–	1.514	1.381
x2 = 0.2019	1.715	–	–
x2 = 0.2513	–	1.41	1.277
x2 = 0.2992	1.585	–	–
x2 = 0.3712	–	1.274	1.165
x2 = 0.4839	–	1.158	1.054
x2 = 0.4989	1.344	–	–
x2 = 0.5516	–	1.097	1.004
x2 = 0.5811	1.254	–	–
x2 = 0.6466	1.183	–	–
x2 = 0.6567	–	1.006	0.9146
x2 = 0.7233	1.102	–	–
x2 = 0.7817	–	0.9053	0.8267
x2 = 0.8015	1.021	–	–
x2 = 0.8998	0.924	–	–
x2 = 0.9314	–	0.8049	0.7359

O=C(O)C=Cc1ccccc1 + CCCCO
viscosity [mPa·s]
Conditions	x1 = 0.0728	x1 = 0.0959	x1 = 0.114
308.15 K, 101.33 kPa	2.48	–	–
313.15 K, 101.33 kPa	2.19	–	–
318.15 K, 101 kPa	1.932	2.073	2.18
318.15 K, 101.33 kPa	1.932	2.073	–
323.15 K, 101.33 kPa	1.712	1.838	–

CCCCCCCO + CCCCCCO
viscosity [mPa·s], 101.8 kPa
Conditions	x2 = 0.1128	x2 = 0.3611	x2 = 0.5306	x2 = 0.6915	x2 = 0.9117
298.15 K	5.786	5.339	5.173	4.875	4.5
308.15 K	4.235	3.946	3.829	3.625	3.347
318.15 K	3.16	2.963	2.879	2.737	2.535

CS(C)=O + CC(C)=O
302.4 K, 101 kPa
Conditions	viscosity [mPa·s]
x1 = 0.0644	0.7031
x1 = 0.1924	0.809
x1 = 0.3826	1.14
x1 = 0.508	1.554
x1 = 0.6325	2.09
x1 = 0.8173	2.443

CCCCCCCCn1cc[n+](C)c1.O=[N+]([O-])[O-] + CCCO
101 kPa
Conditions	viscosity [mPa·s]
293.15 K, x2 = 0.107	510.9
298.15 K, x2 = 0.258	191.5

CC1(C)OCC(CO)O1 (configuration not stated) + CC(O)CO
viscosity [mPa·s], 101 kPa
Conditions	x1 = 0.1024	x1 = 0.2011	x1 = 0.2987	x1 = 0.4005	x1 = 0.5	x1 = 0.6041	x1 = 0.6998	x1 = 0.8002	x1 = 0.9017
298.15 K	40.23	35.6	31.55	27.24	22.86	19.38	16.97	14.5	12.03
308.15 K	23.19	20.46	18.03	15.53	13.03	11.25	10.26	9.248	7.738
318.15 K	14.4	12.56	11.33	9.726	8.135	7.174	6.614	6.244	5.465

CCCCCCCO + Cc1ccccc1
viscosity [mPa·s], 101 kPa
Conditions	298.15 K	308.15 K
x2 = 0.0525	4.969	3.846
x2 = 0.1014	4.357	3.429
x2 = 0.1518	3.776	3.068
x2 = 0.1859	3.412	2.862
x2 = 0.2489	2.873	2.456
x2 = 0.3011	2.473	2.202
x2 = 0.3504	2.153	1.942
x2 = 0.4006	1.843	1.719
x2 = 0.4494	1.63	1.542
x2 = 0.5003	1.435	1.357
x2 = 0.5486	1.245	1.223
x2 = 0.5903	1.12	1.094
x2 = 0.6493	0.965	0.967
x2 = 0.7011	0.893	0.874
x2 = 0.752	0.768	0.766
x2 = 0.8041	0.676	0.664
x2 = 0.8495	0.645	0.624
x2 = 0.9009	0.6	0.575
x2 = 0.9487	0.572	0.527

C[N+](C)(C)CCC[n+]1ccccc1.N#C[N-]C#N.N#C[N-]C#N + CO
viscosity [mPa·s], 100 kPa
Conditions	293.15 K	303.15 K	313.15 K
x1 = 0.2001	–	11.45	–
x1 = 0.8995	952.8	–	198.5

CS(C)=O + CCCCCCCO
101 kPa
Conditions	viscosity [mPa·s]
303.15 K, x1 = 0.1547	4.098
303.15 K, x1 = 0.3356	3.3
303.15 K, x1 = 0.4628	2.842
303.15 K, x1 = 0.5727	2.55
303.15 K, x1 = 0.6715	2.336
303.15 K, x1 = 0.7519	2.179
303.15 K, x1 = 0.8247	2.052
303.15 K, x1 = 0.8847	1.987
303.15 K, x1 = 0.9327	1.891
313 K, x1 = 0.1239	3.068
313 K, x1 = 0.2133	2.75
313 K, x1 = 0.2979	2.528
313 K, x1 = 0.4847	2.188
313 K, x1 = 0.5993	1.998
313 K, x1 = 0.7039	1.839
313 K, x1 = 0.8016	1.743
313 K, x1 = 0.9028	1.621

O=C(O)C=Cc1ccccc1 + CCCO
viscosity [mPa·s]
Conditions	308.15 K	313.15 K	318.15 K	323.15 K
101 kPa, x1 = 0.0687	2.066	–	–	–
101 kPa, x1 = 0.0901	2.224	–	–	–
101 kPa, x1 = 0.109	2.44	–	–	–
101.33 kPa, x1 = 0.0687	2.066	1.836	1.629	1.452
101.33 kPa, x1 = 0.109	2.44	2.158	1.888	1.683
